Data set [1] deals with mGluR4 (UniProt Q14833). The data set is described as follows: mGluR4 potentiation assay (activity table; fluorescence plate reader, compound then EC20 agonist). Format: cell-based. The settings on record: for % GluMax: maximum extent of potentiation; for EC50: potentiation of mGluR4, species of receptor not given. The method, then: The disclosed compounds and compositions can be evaluated for their ability to act as a potentiator of metabotropic glutamate receptor activity, in particular mGluR4 activity, by any suitable known methodology known in the art. For example, Chinese Hamster Ovary (CHO) cells transfected with human mGluR4 or HEK cells co-transfected with rat mGluR4 and the G-protein regulated Inwardly Rectifying Potassium channel (GIRK) were plated in clear bottom assay plates for assay in a Hamamatsu FDSS Fluorometric Plate Reader. The cells were loaded with either a Ca2+-sensitive fluorescent dye Fluo-4 or the thallium responsive dye BTC, AM and the plates were washed and placed into a suitablekinetic plate reader. For human mGluR4 assays, a fluorescence baseline was established for 3-5 seconds, the disclosed compounds were then added to the cells, and the response in cells was measured. Approximately two and a half minutes later, a concentration of mGluR4 orthosteric agonist (e.g. glutamate or L-AP4) eliciting approximately 20% (EC20) of the maximal agonist response was added to the cells, and the response was measured. Two minutes later, a concentration of mGluR4 agonist (e.g. glutamate or L-AP4) eliciting 80% (EC80) of the maximal agonist response was added to the cells, and the response was measured. For rat mGluR4/GIRK experiments, a baseline was established for approximately five seconds, disclosed compounds were added, and either an EC20 or EC80 concentration of agonist was added approximately two and one half minutes later. Potentiation of the agonist response of mGluR4 by the disclosed compounds was observed as an increase in response to the EC20 concentration of agonist in the presence of compound compared to the response to agonist in the absence of compound. Similarly, antagonism of the agonist response of mGluR4 by the disclosed compounds was observed as a decrease in response to the EC80 concentration of agonist in the presence of compound compared to the response to agonist in the absence of compound.
The above described assay operated in two modes. In the first mode, a range of concentrations of the disclosed compounds are added to cells, followed by a single fixed concentration of agonist. If the compound acts as a potentiatior, an EC50 value for potentiation and a maximum extent of potentiation by the compound at this concentration of agonist is determined by non-linear curve fitting. If the compound acts as a noncompetitive antagonist, an IC50 value is determined by non-linear curve fitting. In the second mode, several fixed concentrations of the disclosed compounds are added to various wells on a plate, followed by a range in concentrations of agonist for each concentration of disclosed compound. The EC50 values for the agonist at each concentration of compound are determined by non-linear curve fitting. A decrease in the EC50 value of the agonist with increasing concentrations of the sample compound (a leftward shift of the agonist concentration-response curve) is an indication of the degree of mGluR4 potentiation at a given concentration of the sample compound. A decrease in the maximal response of the agonist with increasing concentrations of the sample compounds, with or without a rightward shift in agonist potency, is an indication of the degree of noncompetitive antagonism at mGluR4. The second mode also indicates whether the sample compounds also affect the maximum response to mGluR4 to agonists.
These compounds are positive allosteric modulators (potentiators) of human and rat mGluR4 and were selective for mGluR4 compared to the other seven subtypes of metabotropic glutamate receptors.

The nature of data set [2]: intraperitoneal pharmacokinetics in male SD rats (plasma and brain). Also noted: AUC(0-8) Brain: unit not given here. The settings on record: 10 mg/kg ip; for AUC(0-8) Brain / AUC(0-t): 0-8 h; for Log BB: brain/plasma. Type of data set: in vivo, rat. The method, then: FIG. 2 is a graph showing intraperitoneal pharmacokinetics of a compound of the present invention in male SD rats (N=3); Formulation: 10% tween 80 microsuspension; Dose: 10 mg/kg; Time points: 0.5 h, 1 h, 2 h, 4 h & 8 h; data are summarized in Table 1 and Table 2.
FIG. 3 is a graph showing intraperitoneal pharmacokinetics of a compound of the present invention in male SD rats (˜300 g); Dose:10 mg/kg, ip; Time points: 0.5 h, 1 h & 8 h (n=3); data are summarized in Table 1 and Table 2.
FIG. 4 is a graph showing intraperitoneal pharmacokinetics of a compound of the present invention in male SD rats (˜300 g); Dose:10 mg/kg, ip; Time points: 0.5 h, 1 h & 8 h (n=3); data are summarized in Table 1 and Table 2.
Additionally, certain exemplary disclosed compounds were evaluated for pharmacokinetic efficacy.

Where [3] appears, read: rat, brain, read-out: Elimination T1/2 Brain (converted).
Setting [4] is: rat, brain, read-out: Tmax Brain.
[5] abbreviates: rat, plasma, read-out: Elimination T1/2 Plasma (converted).
Setting [6] is: rat, plasma, read-out: Tmax Plasma.

Structures are written as SMILES. Where two headings read alike, the source gives them in different places.

As a reminder, the EC50 is the concentration that produces a half-maximal response. As to `O=C(Nc1ccccn1)c1ccc(N2S(=O)(=O)c3ccccc3S2(=O)=O)cc1` [Example 14, N-(pyridin-2-yl)-4-(1,1,3,3-tetraoxidobenzo[d][1,3,2]dithiazol-2-yl)benzamide], in data set [1], the “% GluMax” value is on record as 39% and the EC50 came out at 0.113 µM.
For the compound `O=C(Nc1ccc(N2S(=O)(=O)c3ccccc3S2(=O)=O)cc1)c1cscn1` [Example 10, N-(4-(1,1,3,3-tetraoxidobenzo[d][1,3,2]dithiazol-2-yl)phenyl)thiazole-4-carboxamide], in data set [1], the “% GluMax” value came to 231% and the EC50 is 0.0688 µM.
Take `O=C(Nc1ccc(N2S(=O)(=O)c3ccccc3S2(=O)=O)cc1F)c1ccccn1` [Example 13, N-(2-fluoro-4-(1,1,3,3-tetraoxidobenzo[d][1,3,2]dithiazol-2-yl)phenyl)picolinamide]: in data set [1], the “% GluMax” value amounted to 62% and the EC50 amounted to 0.739 µM.
One may read the Tmax as the time at which the peak concentration occurs. A word on the Cmax: it is the peak of the concentration-time curve. As usually defined, the AUC(0-t) is exposure summed from dosing to a finite time, without extrapolation to infinity. Usually CL/F stands for the apparent clearance, not corrected for the fraction that reaches the circulation. Turning to `O=C(Nc1ccc(N2S(=O)(=O)c3ccccc3S2(=O)=O)cc1)C1CCCCC1` [drawing 138], the V/F in data set [2] was found to be 6.7 L. In addition, in data set [2] (brain), the “Cmax Brain” value was 983.43 ± 188.76 ng/mL or g and the “AUC(0-8) Brain” value is 6295.60 ± 876.30. Also, the half-life in data set [2] (setting [3]) was 12.2 h. Besides, the Tmax in data set [2] (setting [4]) worked out at 0.5 h. Moreover, the Log BB in data set [2] (rat) came to 0.26. In data set [2] (rat, plasma), this compound came in with a Cmax of 1.93 ± 0.845 µg/mL, an AUC(0-t) of 3.4 ± 2.99 µg·h/mL and a CL/F of 2.8 L/h/kg. Moreover, the half-life in data set [2] (setting [5]) was 1.67 h. Further, the Tmax in data set [2] (setting [6]) is 0.5 h.
Regarding `O=C(Nc1ccc(N2S(=O)(=O)c3ccccc3S2(=O)=O)cc1)c1ncccc1F` [Example 8, 3-Fluoro-N-(4-(1,1,3,3-tetraoxidobenzo[d][1,3,2]dithiazol-2-yl)phenyl)picolinamide], in data set [1], the “% GluMax” value was found to be 69% and the EC50 was 0.0496 µM.
Turning to `O=C(Nc1ccc(N2S(=O)(=O)c3ccccc3S2(=O)=O)cc1)c1nccs1` [Example 7, N-(4-(1,1,3,3-tetraoxidobenzo[d][1,3,2]dithiazol-2-yl)phenyl)thiazole-2-carboxamide], in data set [1], the “% GluMax” value came out at 216% and the EC50 is 0.142 µM.
Regarding `O=C(Nc1ccc(N2S(=O)(=O)c3ccccc3S2(=O)=O)cc1)c1ccco1` [drawing 140], in data set [2], the V/F turned out to be 1.49 L and the “Log BB” value is on record as −0.19. In addition, in data set [2] (brain), the “Cmax Brain” value is on record as 2842.81 ± 544.93 ng/mL or g and the “AUC(0-8) Brain” value is 12937.04 ± 2079.74. Besides, the half-life in data set [2] (setting [3]) was 3.79 h. In data set [2] (setting [4]), the Tmax worked out at 1 h. In data set [2] (rat, plasma), this compound gave a Cmax of 5.69 ± 1.36 µg/mL, an area under the curve AUC(0-t) of 20.5 ± 5.18 µg·h/mL and a CL/F of 0.43 L/h/kg. In data set [2] (setting [5]), the half-life was 2.39 h. The time of peak concentration (Tmax) in data set [2] (setting [6]) turned out to be 1 h.
Take `O=C(Nc1ccc(N2S(=O)(=O)c3ccccc3S2(=O)=O)cc1)c1ncc(F)cc1F` [Example 11, 3,5-Difluoro-N-(4-(1,1,3,3-tetraoxidobenzo[d][1,3,2]dithiazol-2-yl)phenyl)picolinamide]: in data set [1], the “% GluMax” value was determined as 195% and the EC50 was found to be 1.65 µM.
The corresponding values for `O=S1(=O)c2ccccc2S(=O)(=O)N1c1ccc(NC2(c3ccccn3)CC2)cc1` [Example 17] are 165% and 0.134 µM.
In the case of `O=C(Nc1ccc(N2S(=O)(=O)c3ccccc3S2(=O)=O)cc1)c1ccccc1` [drawing 139], in data set [2], the V/F is 5.2 L and the “Log BB” value is recorded as −0.9. In data set [2] (brain), the “Cmax Brain” value was 775.51 ± 90.00 ng/mL or g and the “AUC(0-8) Brain” value turned out to be 405.32 ± 98.82. The Tmax in data set [2] (setting [4]) was found to be 1 h. In data set [2] (rat, plasma), the highest level (Cmax) was 1.47 ± 0.041 µg/mL, the AUC(0-t) was 3.28 ± 0.244 µg·h/mL and the apparent clearance CL/F came to 3.07 L/h/kg. The half-life in data set [2] (setting [5]) is 1.21 h. The Tmax in data set [2] (setting [6]) was 1 h.
Consider `O=C(Nc1ccc(N2S(=O)(=O)c3ccccc3S2(=O)=O)cc1)c1ccccc1` [Example 1, N-(4-(1,1,3,3-tetraoxidobenzo[d][1,3,2]dithiazol-2-yl)phenyl)benzamide], for which, in data set [1], the “% GluMax” value came to 146% and the half-maximal effective concentration (EC50) came to 0.203 µM.
The corresponding values for `O=C(Nc1ccc(N2S(=O)(=O)c3ccccc3S2(=O)=O)cc1F)c1ccco1` [Example 12, N-(2-fluoro-4-(1,1,3,3-tetraoxidobenzo[d][1,3,2]dithiazol-2-yl)phenyl)furan-2-carboxamide] are 125% and 9.13 µM.
The corresponding values for `O=C(Nc1ccc(N2S(=O)(=O)c3ccccc3S2(=O)=O)cc1)c1ccccn1` [Example 4, N-(4-(1,1,3,3-tetraoxidobenzo[d][1,3,2]dithiazol-2-yl)phenyl)picolinamide] are 254% and 0.0381 µM.
The corresponding values for `O=C(Nc1ccc(N2S(=O)(=O)c3ccccc3S2(=O)=O)cc1)c1cccc(F)n1` [Example 5, 6-Fluoro-N-(4-(1,1,3,3-tetraoxidobenzo[d][1,3,2]dithiazol-2-yl)phenyl)picolinamide] are 198% and 0.179 µM.
Turning to `O=S1(=O)c2ccccc2S(=O)(=O)N1c1ccc(Nc2ccccn2)nc1` [Example 18, 2-(6-(pyridin-2-ylamino)pyridin-3-yl)benzo[d][1,3,2]dithiazole 1,1,3,3-tetraoxide], in data set [1], the “% GluMax” value amounted to 73% and the concentration for a half-maximal effect (EC50) was determined as 5.45 µM.
The corresponding values for `O=C(Nc1ccc(F)cn1)c1ccc(N2S(=O)(=O)c3ccccc3S2(=O)=O)cc1` [Example 15, N-(5-fluoropyridin-2-yl)-4-(1,1,3,3-tetraoxidobenzo[d][1,3,2]dithiazol-2-yl)benzamide] are 84% and 0.272 µM.
The corresponding values for `O=C(Nc1ccc(N2S(=O)(=O)c3ccccc3S2(=O)=O)cc1)C1CCCCC1` [Example 3, N-(4-(1,1,3,3-tetraoxidobenzo[d][1,3,2]dithiazol-2-yl)phenyl)cyclohexanecarboxamide] are 96% and 0.128 µM.
Turning to `O=C(Nc1ccc(N2S(=O)(=O)c3ccccc3S2(=O)=O)cc1)c1ccco1` [Example 2, N-(4-(1,1,3,3-tetraoxidobenzo[d][1,3,2]dithiazol-2-yl)phenyl)furan-2-carboxamide], in data set [1], the “% GluMax” value came to 284% and the EC50 is 0.05 µM.
The corresponding values for `O=C(Nc1ccc(N2S(=O)(=O)c3ccccc3S2(=O)=O)cc1)c1ccncn1` [Example 6, N-(4-(1,1,3,3-tetraoxidobenzo[d][1,3,2]dithiazol-2-yl)phenyl)pyrimidine-4-carboxamide] are 247% and 0.286 µM.
On the same counts, the results for `O=S1(=O)c2ccccc2S(=O)(=O)N1c1ccc(NCc2ccccn2)cc1` [Example 16, 2-(4-((pyridine-2-ylmethyl)amino)phenyl)benzo[d][1,3,2]dithiazole-1,1,3,3-tetraoxide] are 161% and 2.14 µM.
On the same counts, the results for `O=C(Nc1ccc(N2S(=O)(=O)c3ccccc3S2(=O)=O)cc1)C1CCCCO1` (centres unmarked) [Example 9, N-(4-(1,1,3,3-tetraoxidobenzo[d][1,3,2]dithiazol-2-yl)phenyl)tetrahydro-2H-pyran-2-carboxamide] are 166% and 0.914 µM.

(Values after patent publication US8658650B2, “Substituted 1,1,3,1-tetraoxidobenzo[D][1,3,2]dithiazoles as MGLUR4 allosteric potentiators, compositions, and methods of treating neurological dysfunction” (Vanderbilt University, priority 2009, dated 2014).)
